Results reported in patent US7807712B2, “Oxy substituted chalcones as antihyperglycemic and antidyslipidemic agents” (priority 2004, dated 2010).

Tests used:
db/db mice [1] = experiment: Antihyperglycemic activity in db/db mice; format: in vivo, mouse (C57BL/KsBom-db); details: for % Fall in blood glucose levels 6 days / % Fall in blood glucose levels 10 days: db/db mice; for % Fall in blood glucose levels 6 days: day 6 postprandial protocol; for % Fall in blood glucose levels 10 days: day 10 OGTT, glucose 3 gm/kg
Source text: (§1) The db/db mouse is a well-characterized model of […]. The background for the db/db mouse is the C57BL/Ks strain. The major deficiency of the C57BL/KsBom-db mouse (db/db) is lack of a functional leptin receptor. This leads to defective leptin signaling and a complete lack of feedback from leptin. […] The db/db mouse develops NIDDM from around week 10. The disease is stable until week 20, where destruction of pancreatic β-cells can be recognized clinically as decreasing levels of plasma insulin and very severe hyperglycemia. The male mice are more diabetic than female and will normally die earlier. The advantage of using male mice for experimental purposes is that the fluctuations in plasma parameters are less than in the females where the estrogen cycle affects the clinical diabetes mellitus. The optimal age of db/db mice used for experiments will be from week 12 to 18 when they have developed NIDDM with diabetic dyslipidemia but still have functional β-cells in the pancreas. C57BL/KsBom-db mice 12-18 weeks, 40-50 g bred in the animal house of CDRI, Lucknow. 10 male mice were used in the experiments. The mice were housed in groups of 5 individuals in a room controlled for temperature (23±2° C.) and 12/12 hours light/dark cycle (lights on at 6.00 am). Body weight was measured daily from day 1 to day 10. All animals had free access to fresh water and to normal chow except on the days of the postprandial protocol day 6 and during the overnight fast before the OGTT on day 10. Blood glucose was checked every morning up till day 5. On day 6 postprandial protocol was employed, in this method blood glucose was checked at −0.30 min and 0 h. Test compounds were given to the treatment group whereas control group received only gum acacia (1.0%); the blood glucose was again checked at 1, 2, 3, 4 and 6 h post test compound treatment. Finally on day 10 an oral glucose tolerance test (OGTT) was performed after an overnight fasting. Blood glucose was measured at −0.30 min and test drugs were fed, blood glucose was again measured at 0.0 min post treatment, at this juncture glucose solution was given at a dose of 3 gm/kg to all the groups including control group; the profile of blood glucose was checked at 30 min, 60 min, 90 min and 120 min post glucose administration. Quantitative glucose tolerance of each animal was calculated by Area Under Curve (AUC) method (Prism Software). Comparing the AUC of experimental and control groups determined the percentage antihyperglycemic activity. Statistical comparison was made by Dunnett's test.

sucrose loaded rats = experiment: Sucrose loaded rat model (SLM), antihyperglycemic activity; format: in vivo, rat (Charles Foster/Wistar); details: for inhibition in vivo at 100 mg/kg: Rattus norvegicus, 2 h, 100 mg/kg oral, sucrose load 10.0 g/kg, AUC vs control, 30-120 min, read-out: % Fall in blood glucose levels SLM; for activity in SLM model: summary statement
Protocol: Male albino rats of Charles Foster/Wistar strain of average body weight 160±20 g were selected for this study. The blood glucose level of each animal was checked by glucometer using glucostrips (Boehringer Mannheim) after 16 h starvation. Animals showing blood glucose levels between 3.33 to 4.44 mM (60 to 80 mg/dl) were divided into groups of five to six animals in each. Animals of experimental group were administered suspension of the desired synthetic compound orally (made in 1.0% gum acacia) at a dose of 100-mg/kg-body weight. Animals of control group were given an equal amount of 1.0% gum acacia. A sucrose load (10.0 g/kg) was given to each animal orally exactly after 30 min post administration of the test sample/vehicle. Blood glucose profile of each rat was again determined at 30, 60, 90 and 120 min post administration of sucrose by glucometer. Food but not water was withheld from the cages during the course of experimentation. Quantitative glucose tolerance of each animal was calculated by Area Under Curve (AUC) method (Prism Software). Comparing the AUC of experimental and control groups determined the percentage antihyperglycemic activity. Statistical comparison was made by Dunnett's test.

[2] = system: streptozotocin-induced diabetic rats; experiment: Sucrose-challenged streptozotocin-induced diabetic rats (STZ-S), antihyperglycemic activity; format: in vivo, rat (Sprague Dawley); details: for activity in STZ model: summary statement
Protocol: Male albino rats of Sprague Dawley strain of body weight […] were selected for this study. Streptozotocin (Sigma, USA) was dissolved in 100 mM citrate buffer pH 4.5 and calculated amount of the fresh solution was injected to overnight fasted rats (45 mg/kg) intraperitoneally. Blood glucose level was checked 48 h later by glucostrips and animals showing blood glucose values between 144 to 270 mg/dl (8 to 15 mM) were included in the experiment and termed diabetic. The diabetic animals were divided into groups consisting of five to six animals in each group. Animals of experimental groups were administered suspension of the desired test samples orally (made in 1.0% gum acacia) at a dose of 100-mg/kg-body weight. Animals of control group were given an equal amount of 1.0% gum acacia. A sucrose load of 2.5-g/kg body weight was given after 30 minutes of compound administration. After 30 minutes of post sucrose load blood glucose level was again checked by glucostrips at 30, 60, 90, 120, 180, 240, 300 min and at 24 h, respectively. Animals not found diabetic after 24 hours post treatment of the test sample were not considered and omitted from the calculations and termed as non-responders. […] Food but not water was withheld from the cages during the experimentation. Comparing the AUC of experimental and control groups determined the percent antihyperglycemic activity. Statistical comparison between groups was made by Student's ‘t’ test.

db/db mice [3] = experiment: Antidyslipidemic activity in db/db mice; format: in vivo, mouse (C57BL/KsBom-db); details: for % Fall in lipid levels HDL: serum HDL-cholesterol; for % Fall in lipid levels Chol.: serum cholesterol; for % Fall in lipid levels TG: serum triglycerides
Source text: as §1
Cholesterol and triglycerides were estimated using the same procedures as given above.
HDL-Cholesterol was estimated using the kit provided by the Roche Diagnostics. Cholestest N HDL is a liquid reagent that directly measures the HDL-cholesterol concentration in serum by a new method that is based on the selective solubilising effect of proprietary detergent to the different lipoproteins. In the assay system, only HDL is solubilised by a special detergent; other lipoproteins are not disturbed. After HDL is selectively disrupted, HDL cholesterol is measured enzymatically (Gordon, T.; Casstelli, W. P.; Hjortland, M. C.; Kannel, W. B.; Dawber, T. R. High density lipoproteins as a protective factor against coronary heart disease, Am. J. Med. 1977, 62, 707-714.).

[4] = 100 mg/kg oral, sucrose load 2.5 g/kg, AUC vs control

Compound: COc1ccc(/C=C/C(=O)c2ccc(OCC(O)CN3CCN(c4ccccc4)CC3)cc2)cc1OC (stereo not drawn) [Compound 18, 3,4-Dimethoxy-4′-[2-hydroxy-3-(4-phenylpiperazin-1-yl)-propoxy]-chalcone]
- % Fall in blood glucose levels 6 days (db/db mice [1]): 29.9%
- % Fall in blood glucose levels 10 days (db/db mice [1]): 18.9%
- inhibition in vivo at 100 mg/kg (sucrose loaded rats): 15.4%
- activity in SLM model (sucrose loaded rats): significant results
- % Fall in blood glucose levels STZ-S 24 h [2, 4]: 20.3%
- activity in STZ model [2]: significant results
- % Fall in lipid levels HDL (db/db mice [3]): 11.8%
- % Fall in lipid levels Chol. (db/db mice [3]): 1.36%
- % Fall in lipid levels TG (db/db mice [3]): +5.20%

Compound: O=C1NC(=O)/C(=C\c2ccc(OCCCCCOc3cccc(C(=O)/C=C/c4ccc5c(c4)OCO5)c3)cc2)S1 [Compound 46, 3,4-Methylenedioxy-3′-{5-[4-(thiazolidin-2,4-dione-5-ylidinemethyl)-phenoxy]-pentyloxy}-chalcone]
- % Fall in blood glucose levels 6 days (db/db mice [1]): 1.76%
- % Fall in blood glucose levels 10 days (db/db mice [1]): 23.1%
- lowering of blood glucose in db/db mice (db/db mice [1]; summary statement): significant lowering of blood glucose
- inhibition in vivo at 100 mg/kg (sucrose loaded rats): 13.4%
- % Fall in blood glucose levels STZ-S 5 h ([2]; 100 mg/kg oral, sucrose load 2.5 g/kg, AUC vs control, 5 h): 11.8%
- % Fall in blood glucose levels STZ-S 24 h [2, 4]: 7.18%
- % Fall in lipid levels HDL (db/db mice [3]): 21.4%
- % Fall in lipid levels Chol. (db/db mice [3]): 18.9%
- % Fall in lipid levels TG (db/db mice [3]): 6.76%

Compound: CC(C)(C)NCC(O)COc1ccc(C(=O)/C=C/c2ccc3c(c2)OCO3)cc1 (stereo not drawn) [Compound 34, 4′-[^3-tert-Butylamino-2-hydroxy-propoxy]-3,4-methylenedioxy-chalcone]
- % Fall in blood glucose levels 6 days (db/db mice [1]): NIL
- % Fall in blood glucose levels 10 days (db/db mice [1]): 32.0%
- inhibition in vivo at 100 mg/kg (sucrose loaded rats): 21.1%
- activity in SLM model (sucrose loaded rats): significant results
- % Fall in blood glucose levels STZ-S 24 h [2, 4]: 23.0%
- activity in STZ model [2]: significant results
- % Fall in lipid levels HDL (db/db mice [3]): +1.76%
- % Fall in lipid levels Chol. (db/db mice [3]): 40.3%
- % Fall in lipid levels TG (db/db mice [3]): +7.44%
